Data set [1] deals with T1, human calcitonin-2 receptor (hCT2R) (Homo sapiens, UniProt P30988).
T1 construct: expressed in transfected cells; host or cells: Chinese hamster ovary (CHO) cells co-transfected with a 6CRE-luciferase reporter; receptor cDNA cloned from the MCF7 cell line
T1 sequence (P30988 25-474): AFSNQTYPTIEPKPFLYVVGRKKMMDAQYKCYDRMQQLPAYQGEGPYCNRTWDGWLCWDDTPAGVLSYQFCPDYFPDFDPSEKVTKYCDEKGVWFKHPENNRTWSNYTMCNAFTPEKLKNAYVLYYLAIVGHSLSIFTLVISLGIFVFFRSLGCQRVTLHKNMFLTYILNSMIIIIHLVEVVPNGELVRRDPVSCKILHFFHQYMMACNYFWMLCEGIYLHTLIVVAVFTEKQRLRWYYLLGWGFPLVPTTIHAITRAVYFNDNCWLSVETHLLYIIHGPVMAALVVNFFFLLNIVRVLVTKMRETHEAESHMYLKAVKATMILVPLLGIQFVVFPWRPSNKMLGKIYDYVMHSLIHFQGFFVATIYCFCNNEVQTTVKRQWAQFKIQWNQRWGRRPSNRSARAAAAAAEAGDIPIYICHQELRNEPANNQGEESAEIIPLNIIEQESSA
In words: HCT2R CRE-luc reporter assay. To be noted: agonist activity; CHO-6CRE-luciferase cells co-transfected with hCT2R. Type of data set: cell-based.

Another data set relates to neonatal rat calvaria. Briefly: Rat calvaria assay in vitro (bone resorption). Type of data set: cell-based. To be noted: PTH 10 ng/ml stimulated bone resorption; calcium and deoxypyridinoline in supernatant. Further details: key: Active: Rat calvaria: Concentration-dependent inhibition of bone resorption with efficacy equivalent to calcitonin 1 ng/ml. The method, then:
Bone resorption of neonatal rat cavarial chips was measured using methods adapted from published protocols [Ulf H, Lemer Modifications of the Mouse Calvarial Technique Improve the Responsiveness to Stimulators of Bone Resorption. Journal of Bone and Mineral Research Vol 2, No. 5, 1987]. Resorption was measured by quantification of calcium in the supernatant by a calorimetric assay and of deoxypyridinoline in the supernatant by ELISA. Deoxypyridinoline is released as a by product of collagen degradation by the osteoclast
Calvaria were surgically removed from 2–3 day old Wistar rats and placed in a sterile tube containing BGJb media (Fitton-Jackson Modification)—GIBCO BRL with penicillin (10 U/ml)/streptomycin (10 μg/ml). Calvaria were washed twice with fresh media, trimmed of excess tissue, and placed in fresh media. Calvaria were uniformly sectioned and placed in the wells of a tissue culture plate in 1 ml of BGJb/P/S with 1 mg/ml BSA. Calvaria were incubated for 24 hours at 37° C., 5% CO2 before treatments. Media was aspirated and replaced with 1 ml of fresh media containing PTH 10 ng/ml . Unstimulated wells contained media alone. Test compounds or calcitonin (1 ng/ml) were added. Compounds or calcitonin were added again on days 2 and 3, with no medium or PTH additions. Upon completion of the assay, the media was collected and stored at −20° C. until analysis was performed. Calvaria were air-dried for several days, and dry weight was quantified.
Deoxypyridinoline ELISA: Supernatants were evaluated for deoxypyridinoline crosslinks according to kit manufacturer instructions. SoftMax software was used to evaluate ELISA data from a 96-well format to generate a standard curve. Sample values were extrapolated from this standard curve. Extrapolated sample values were imported into a Microsoft Excel to normalize sample values to dried calvarial weight. Data was expressed as nanomolar DPD/mg calvaria.
Calcium analysis: Calcium determinations were made using Arsenazo III reagent from Sigma Diagnostics No. 588. Procedure followed as described by manufacturer in kit instructions. Data was imported from plate reader into Microsoft® Excel® and calcium concentrations were calculated as follows: [Asample/Astandard]×Concentration of standard=mg/dL Calcium
Sample values were normalized to dried calvarial weight and expressed as mg/dL calcium per mg calvaria.

Data set [2] deals with Thyroid-parathyroidectomized (TPTX) rats. Briefly: Rat TPTX assay in vivo (PTH-induced elevation of serum calcium). Particulars: serum calcium, PTH-infused TPTX rats, vs PTH + Vehicle. Set-up: key to TPTX rat in vivo: Active: TPTX (Thyroid- parathyroidectomized) rat: Significant inhibition of bone resorption reflected in serum calcium levels relative to PTH + Vehicle controls. The text has this:
Thyroid-parathyroidectomized (TPTX) rats were used to determine the effects of compounds on PTH-induced elevation of serum calcium in vivo. The thyroid and parathyroid glands of male CD rats were removed under anesthesia and subcutaneous pumps containing human parathyroid hormone (hPTH 1–34) were implanted two to five days after TPTX. […] PTH was delivered at a rate of 30 micrograms/kg/hour. PTH causes significant elevations of serum calcium in TPTX rats given no other treatments. Rats were treated with vehicle, test compounds at various doses or calcitonin 16 units/kg SC. […] Serurn calcium was measured at baseline and every two hours up to six hours. Averaged group responses at each time point were compared using Analysis of Variance (ANOVA).

The results in this text go back to US7189851B2, “Condensed heterocyclic compounds as calcitonin agonists” (SmithKline Beecham Corporation, priority 2002, dated 2007).

As a reminder, the EC50 is the concentration at which the effect is half-maximal. One may read the melting point as the temperature of the solid-liquid transition.

`CCOC(=O)c1c(CCc2ccc(C(F)(F)F)cc2)nc2c(c1-c1ccc(C(=O)N[C@@H](C)c3ccncc3)cc1)C(=O)N1CCC[C@@H]21` [Example 5, Ethyl (9aS)-5-oxo-4-[4-({[(1S)-1-(4-pyridinyl)ethyl]amino}carbonyl)phenyl]-2-{2-[4-(trifluoromethyl)phenyl]ethyl}-7,8,9,9a-tetrahydro-5H-pyrido[2,3-α]pyrrolizine-3-carboxylate] had a melting point of 158 to 160 °C. Further, the EC50 in data set [1] is 0.1 to 1 µM. Besides, in the data set on neonatal rat calvaria, the “Rat calvaria in vitro” value was “Active”. Further, the “TPTX rat in vivo” value in data set [2] is on record as “Active”.
The compound `CCOC(=O)c1c(CCc2ccc(OC)cc2)nc2c(c1-c1ccc(C(=O)NCc3ccccn3)cc1)C(=O)N1CCC[C@H]1C2` [Example 57, Ethyl (9aS)-2-[2-(4-methoxyphenyl)ethyl]-5-oxo-4-(4-{[(2-pyridinylmethyl)amino]carbonyl}phenyl)-5,7,8,9,9a,10-hexahydropyrrolo[1,2-g][1,6]naphthyridine-3-carboxylate] registered a melting point above 200 °C. The EC50 in data set [1] was at least 1 µM.
On the same counts, the results for `CCOC(=O)c1c(CCc2ccc(C(F)(F)F)cc2)nc2c(c1-c1ccc(S(=O)(=O)NCc3ccco3)cc1)C(=O)N1CCC[C@@H]21` [Example 2, Ethyl (9aS)-4-(4-{[(2-furylmethyl)amino]sulfonyl}phenyl)-5-oxo-2-{2-[4-(trifluoromethyl)phenyl]ethyl}-7,8,9,9a-tetrahydro-5H-pyrido[2,3-a]pyrrolizine-3-carboxylate] are 181 to 182 °C and 0.1 to 1 µM.
With `CCOC(=O)c1c(CCc2ccc(F)cc2)nc2c(c1-c1cc(C(=O)NCc3ccc(F)c(F)c3)cs1)C(=O)N1CCC[C@@H]21` [Example 16, Ethyl(9aS)-4-(4-{[(3,4-difluorobenzyl)amino]carbonyl}-2-thienyl)-2-[2-(4-fluorophenyl)ethyl]-5-oxo-7,8,9,9a-tetrahydro-5H-pyrido[2,3-a]pyrrolizine-3-carboxylate], the EC50 in data set [1] is at most 0.01 µM. In addition, the “Rat calvaria in vitro” value in the data set on neonatal rat calvaria is listed as “Active”. In addition, in data set [2], the “TPTX rat in vivo” value is “Active”.
In the case of `CCOC(=O)c1c(CCc2ccc(C(F)(F)F)cc2)nc2c(c1-c1ccc(C(=O)N[C@H](C)c3ccncc3)cc1)C(=O)N1CCC[C@@H]21` [Example 4, Ethyl (9aS)-5-oxo-4-[4-({[(1R)-1-(4-pyridinyl)ethyl]amino}carbonyl)phenyl]-2-{2-[4-(trifluoromethyl)phenyl]ethyl}-7,8,9,9a-tetrahydro-5H-pyrido[2,3-a]pyrrolizine-3-carboxylate], in data set [1], the EC50 fell in the range of 0.01 to 0.1 µM. For the same compound, in the data set with neonatal rat calvaria, the “Rat calvaria in vitro” value is on record as “Active”. The “TPTX rat in vivo” value in data set [2] is given as “Active”.
In the case of `CCOC(=O)c1c(CCc2ccc(C(F)(F)F)cc2)nc2c(c1-c1ccc(NC(=O)Nc3ccccc3)cc1)C(=O)N1CCC[C@@H]21` [Example 7, Ethyl (9aS)-4-{4-[(anilinocarbonyl)amino]phenyl}-5-oxo-2-{2-[4-(trifluoromethyl)phenyl]ethyl}-7,8,9,9a-tetrahydro-5H-pyrido[2,3-α]pyrrolizine-3-carboxylate], the melting point was 137 to 139 °C. In addition, in data set [1], the EC50 was in the range of 0.1 to 1 µM.
